Data published in patent publication US6914045B2, “Glycopeptide antibiotics” (Wyeth Holdings Corporation, priority 2001, dated 2005).
Values after ≈ are worked out from the molar mass of the structure shown.

Columns and labels:
Enterococcus sp. = assay: in vitro antibacterial evaluation, MIC by broth dilution; format: cell-based; conditions: broth dilution, 18 hours at 35° C.
In short: (§1)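 Following National Committee for Clinical Laboratory Standards recommendations (M7-A2), susceptibility was measured by dilution in Muller-Hinton II […]. Bacteria were seeded at 5×10^5 CFU/mL against compound concentrations from 64 down to 0.06 μg/mL.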

Escherichia coli = assay: as above; format: cell-based; conditions: 18 hours at 35° C.
In short: as §1

Staphylococcus sp. = assay: as above; format: cell-based; conditions: broth dilution, 18 hours at 35° C.
In short: as §1

Streptococcus sp. = assay: as above; format: cell-based; conditions: broth dilution, 18 hours at 35° C.
In short: as §1

[1] = test system: Enterococcus faecalis (GC 6189); assay: acute lethal infection in mice; format: in vivo; conditions: female CD-1 mice, intraperitoneal challenge, intravenous 30 min. after infection, 7 day survival
In short: (§2)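 Survival at 7 days, pooled from three independent tests, yields ED50 values. Treatment is intravenous, 30 min after ip infection of female CD-1 mice, using an inoculum lethal to untreated controls within 24-48 hr.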

[2] = test system: Staphylococcus aureus-SMITH (GC 4543); assay: acute lethal infection in mice; format: in vivo; conditions: acute lethal infection, female CD-1 mice, intraperitoneal challenge, intravenous 30 min. after infection, 7 day survival
In short: as §2

CC(c1ccccc1)C1NC(=O)CNC(=O)C(CO)NC(=O)C(C(O)C2CNC(=N)N2C2OC(CO)C(O)C(O)C2O)NC(=O)C(C(O)C2CNC(=N)N2)NC(=O)C(Cc2ccc(OC3OC(CO)C(OC4OC5COC(C6CC=CCC6)OC5C(O)C4O)C(O)C3O)cc2)NC1=O (stereo not drawn) [Example 115, Cyclo[glycyl-β-methylphenylalanyl-O-[4-O-[4,6-O-(cyclohex-3-en-1-ylmethylene)hexopyranosyl]hexopyranosyl]tyrosyl-3-(2-iminoimidazolidin-4-yl)seryl-3-(3-hexopyranosyl-2-iminoimidazolidin-4-yl)serylseryl]]
MIC Enterococcus avium (GC 4558) (Enterococcus sp.; Enterococcus avium (GC 4558)): 2 µg/mL (≈ 1.44 µM)
MIC Enterococcus faecalis (ATCC 29212) (Enterococcus sp.; Enterococcus faecalis (ATCC 29212)): 2 µg/mL (≈ 1.44 µM)
MIC Enterococcus faecalis (GC 2242) (Enterococcus sp.; Enterococcus faecalis (GC 2242)): 2 µg/mL (≈ 1.44 µM)
MIC Enterococcus faecalis (GC 2691) (Enterococcus sp.; Enterococcus faecalis (GC 2691)): 2 µg/mL (≈ 1.44 µM)
MIC Enterococcus faecalis (GC 3059) (Enterococcus sp.; Enterococcus faecalis (GC 3059)): 2 µg/mL (≈ 1.44 µM)
MIC Enterococcus faecalis (GC 4552) (Enterococcus sp.; Enterococcus faecalis (GC 4552)): 2 µg/mL (≈ 1.44 µM)
MIC Enterococcus faecalis (GC 4553) (Enterococcus sp.; Enterococcus faecalis (GC 4553)): 4 µg/mL (≈ 2.88 µM)
MIC Enterococcus faecalis (GC 4554) (Enterococcus sp.; Enterococcus faecalis (GC 4554)): 2 µg/mL (≈ 1.44 µM)
MIC Enterococcus faecalis (GC 6189) (Enterococcus sp.; Enterococcus faecalis (GC 6189)): 2 µg/mL (≈ 1.44 µM)
MIC Enterococcus faecium (GC 2243) (Enterococcus sp.; Enterococcus faecium (GC 2243)): 2 µg/mL (≈ 1.44 µM)
MIC Enterococcus faecium (GC 4556) (Enterococcus sp.; Enterococcus faecium (GC 4556)): 2 µg/mL (≈ 1.44 µM)
MIC Enterococcus faecium (GC 4557) (Enterococcus sp.; Enterococcus faecium (GC 4557)): 2 µg/mL (≈ 1.44 µM)
MIC Enterococcus faecalis (ATCC 29212) (Enterococcus sp.; strain ATCC 29212): 2 µg/mL (≈ 1.44 µM)
MIC Enterococcus faecalis (GC 2242) (Enterococcus sp.; strain GC 2242): 2 µg/mL (≈ 1.44 µM)
MIC Enterococcus faecium (GC 2243) (Enterococcus sp.; strain GC 2243): 2 µg/mL (≈ 1.44 µM)
MIC Enterococcus faecalis (GC 2691) (Enterococcus sp.; strain GC 2691): 2 µg/mL (≈ 1.44 µM)
MIC Enterococcus faecalis (GC 3059) (Enterococcus sp.; strain GC 3059): 2 µg/mL (≈ 1.44 µM)
MIC Enterococcus faecalis (GC 4552) (Enterococcus sp.; strain GC 4552): 2 µg/mL (≈ 1.44 µM)
MIC Enterococcus faecalis (GC 4553) (Enterococcus sp.; strain GC 4553): 4 µg/mL (≈ 2.88 µM)
MIC Enterococcus faecalis (GC 4554) (Enterococcus sp.; strain GC 4554): 2 µg/mL (≈ 1.44 µM)
MIC Enterococcus faecium (GC 4556) (Enterococcus sp.; strain GC 4556): 2 µg/mL (≈ 1.44 µM)
MIC Enterococcus faecium (GC 4557) (Enterococcus sp.; strain GC 4557): 2 µg/mL (≈ 1.44 µM)
MIC Enterococcus avium (GC 4558) (Enterococcus sp.; strain GC 4558): 2 µg/mL (≈ 1.44 µM)
MIC Enterococcus faecalis (GC 6189) (Enterococcus sp.; strain GC 6189): 2 µg/mL (≈ 1.44 µM)
MIC Escherichia coli (ATCC 25922) (Escherichia coli; strain ATCC 25922): 32 µg/mL (≈ 23.1 µM)
MIC Escherichia coli (GC 4559) (Escherichia coli; strain GC 4559): 64 µg/mL (≈ 46.1 µM)
MIC Escherichia coli (GC 4560) (Escherichia coli; strain GC 4560): 1 µg/mL (≈ 0.721 µM)
MIC Coagulase Negative Staphylococcus (GC 4547) (Staphylococcus sp.): 1 µg/mL (≈ 0.721 µM)
MIC Coagulase Negative Staphylococcus (GC 4548) (Staphylococcus sp.): 0.5 µg/mL (≈ 0.36 µM)
MIC Coagulase Negative Staphylococcus (GC 4549) (Staphylococcus sp.): 1 µg/mL (≈ 0.721 µM)
MIC Coagulase Negative Staphylococcus (GC 4551) (Staphylococcus sp.): 1 µg/mL (≈ 0.721 µM)
MIC Coagulase Negative Staphylococcus (GC 6257) (Staphylococcus sp.): 0.5 µg/mL (≈ 0.36 µM)
MIC Staphylococcus aureus (ATCC 29213) (Staphylococcus sp.): 1 µg/mL (≈ 0.721 µM)
MIC Staphylococcus aureus (GC 1131) (Staphylococcus sp.): 1 µg/mL (≈ 0.721 µM)
MIC Staphylococcus aureus (GC 3051) (Staphylococcus sp.): 1 µg/mL (≈ 0.721 µM)
MIC Staphylococcus aureus (GC 3053) (Staphylococcus sp.): 1 µg/mL (≈ 0.721 µM)
MIC Staphylococcus aureus (GC 4541) (Staphylococcus sp.): 1 µg/mL (≈ 0.721 µM)
MIC Staphylococcus aureus (GC 4542) (Staphylococcus sp.): 0.5 µg/mL (≈ 0.36 µM)
MIC Staphylococcus aureus (GC 4544) (Staphylococcus sp.): 1 µg/mL (≈ 0.721 µM)
MIC Staphylococcus aureus (GC 4545) (Staphylococcus sp.): 0.5 µg/mL (≈ 0.36 µM)
MIC Staphylococcus aureus-SMITH (GC 4543) (Staphylococcus sp.): 1 µg/mL (≈ 0.721 µM)
MIC Staphylococcus haemolyticus (GC 4546) (Staphylococcus sp.): 0.5 µg/mL (≈ 0.36 µM)
MIC Staphylococcus aureus (GC 1131) (Staphylococcus sp.; inoculum 5×10^5 CFU/mL, strain GC 1131): 1 µg/mL (≈ 0.721 µM)
MIC Staphylococcus aureus (ATCC 29213) (Staphylococcus sp.; strain ATCC 29213): 1 µg/mL (≈ 0.721 µM)
MIC Staphylococcus aureus (GC 3051) (Staphylococcus sp.; strain GC 3051): 1 µg/mL (≈ 0.721 µM)
MIC Staphylococcus aureus (GC 3053) (Staphylococcus sp.; strain GC 3053): 1 µg/mL (≈ 0.721 µM)
MIC Staphylococcus aureus (GC 4541) (Staphylococcus sp.; strain GC 4541): 1 µg/mL (≈ 0.721 µM)
MIC Staphylococcus aureus (GC 4542) (Staphylococcus sp.; strain GC 4542): 0.5 µg/mL (≈ 0.36 µM)
MIC Staphylococcus aureus (GC 4544) (Staphylococcus sp.; strain GC 4544): 1 µg/mL (≈ 0.721 µM)
MIC Staphylococcus aureus (GC 4545) (Staphylococcus sp.; strain GC 4545): 0.5 µg/mL (≈ 0.36 µM)
MIC Staphylococcus haemolyticus (GC 4546) (Staphylococcus sp.; strain GC 4546): 0.5 µg/mL (≈ 0.36 µM)
MIC Coagulase Negative Staphylococcus (GC 4547) (Staphylococcus sp.; strain GC 4547): 1 µg/mL (≈ 0.721 µM)
MIC Coagulase Negative Staphylococcus (GC 4548) (Staphylococcus sp.; strain GC 4548): 0.5 µg/mL (≈ 0.36 µM)
MIC Coagulase Negative Staphylococcus (GC 4549) (Staphylococcus sp.; strain GC 4549): 1 µg/mL (≈ 0.721 µM)
MIC Coagulase Negative Staphylococcus (GC 4551) (Staphylococcus sp.; strain GC 4551): 1 µg/mL (≈ 0.721 µM)
MIC Coagulase Negative Staphylococcus (GC 6257) (Staphylococcus sp.; strain GC 6257): 0.5 µg/mL (≈ 0.36 µM)
MIC Staphylococcus aureus-SMITH (GC 4543) (Staphylococcus sp.; strain SMITH GC 4543): 1 µg/mL (≈ 0.721 µM)
MIC Streptococcus agalactiae (GC 4564) (Streptococcus sp.; Streptococcus agalactiae (GC 4564)): 0.25 µg/mL (≈ 0.18 µM)
MIC Streptococcus pneumoniae (ATCC 6301) (Streptococcus sp.; Streptococcus pneumoniae (ATCC 6301)): <0.06 µg/mL
MIC Streptococcus pneumoniae (GC 1894) (Streptococcus sp.; Streptococcus pneumoniae (GC 1894)): <0.06 µg/mL
MIC Streptococcus pneumoniae (GC 4565) (Streptococcus sp.; Streptococcus pneumoniae (GC 4565)): 0.12 µg/mL (≈ 0.0865 µM)
MIC Streptococcus pyogenes (GC 4563) (Streptococcus sp.; Streptococcus pyogenes (GC 4563)): 0.25 µg/mL (≈ 0.18 µM)
MIC Streptococcus pneumoniae (ATCC 6301) (Streptococcus sp.; strain ATCC 6301): <0.06 µg/mL
MIC Streptococcus pneumoniae (GC 1894) (Streptococcus sp.; strain GC 1894): <0.06 µg/mL
MIC Streptococcus pyogenes (GC 4563) (Streptococcus sp.; strain GC 4563): 0.25 µg/mL (≈ 0.18 µM)
MIC Streptococcus agalactiae (GC 4564) (Streptococcus sp.; strain GC 4564): 0.25 µg/mL (≈ 0.18 µM)
MIC Streptococcus pneumoniae (GC 4565) (Streptococcus sp.; strain GC 4565): 0.12 µg/mL (≈ 0.0865 µM)
median effective dose (ED50), Enterococcus faecalis (GC 6189) [1]: 0.36 mg/kg
median effective dose (ED50), Staphylococcus aureus-SMITH (GC 4543) [2]: 0.23 mg/kg
